This note sets out measurements from PubChem BioAssay (NCI).

Each structure is given as a SMILES string.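 These data come from cells grown in 96-well plates and exposed to compound for 48 hours at five concentrations. Here, GI50 denotes the concentration required for 50% inhibition of growth. Definition used: TGI = concentration required for complete inhibition of growth.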

Experiment in all cases: NCI tumour cell line growth inhibition, 48 h
For experiment [1], the system named is M19-MEL melanoma.
Experiment [2] relates to LXFL 529 NSCLC.
The subject of experiment [3] is SNB-78 CNS.
The test system of experiment [4] is XF 498 CNS.
Experiment [5] concerns DLD-1 colon.
Experiment [6] deals with RXF-631 renal.
In experiment [7] the test system is HOP-18 NSCLC.
In experiment [8] the test system is DMS 273 small cell lung.
In experiment [9] the test system is MDA-N.
The subject of experiment [10] is SN12K1 renal.
The subject of experiment [11] is P388 leukemia.

Take `O=C1CCC2(c3ccc(F)cc3)Nc3ccccc3N12` (centres undefined): the TGI in experiment [1], in experiment [2], in experiment [3], in experiment [4], in experiment [5] and in experiment [6] was more than 100 µM in each case.

As for `Cc1cccc(C)c1NC(=O)CCC(=O)NNC(=O)c1cc(O)c2ccccc2c1`, the TGI in experiment [1], in experiment [7], in experiment [2], in experiment [4] and in experiment [5] was more than 100 µM throughout.

Regarding `COC(=O)OCC1OC(N2C(=O)NC(=O)C(I)C2N=[N+]=[N-])CC1OC(=O)OC` (centres undefined), the TGI in experiment [8], in [1], in experiment [2], in experiment [3], in experiment [4] and in experiment [5] was more than 100 µM in each case. Moreover, the TGI in [6] was more than 100 µM.

Regarding `COc1ccccc1-c1cc2c3c(nc4ccccc42)C(=O)c2cccnc2-c3n1`, in experiment [9], the GI50 is 14.9 µM and the TGI worked out at 28.5 µM.

Consider `[Cu+2].[Cu+2].[O-]c1ccccc1C=Nc1ccccc1[O-].[O-]c1ccccc1C=Nc1ccccc1[O-]`, for which the GI50 is 2540 nM in experiment [8]; 1860 nM in experiment [1]; 2990 nM in experiment [7]; 3.02 µM in experiment [2]; 13.5 µM in experiment [3]; 2670 nM in experiment [4]. Further, in experiment [5], the GI50 was 3.95 µM. Also, the TGI in experiment [8] came to 13.6 µM; in [1], 3.69 µM; in [7], 16.6 µM; in experiment [2], 9.48 µM; in experiment [3] it was 36.4 µM; in experiment [4] it was 7.16 µM. This compound showed a TGI in experiment [5] of 16.6 µM.

Consider `COc1cc(OC)c(-c2cc(=O)c3c(OC)c(OC)c(OC)c(OC)c3o2)cc1OC`, for which, in experiment [9], the TGI was more than 100 µM.

Consider `Cc1c(Cl)ccc2c1NC(=O)C2(O)CC(=O)c1ccc(Cl)cc1Cl` (centres undefined), for which the TGI in [8], in experiment [1], in experiment [9], in experiment [2], in experiment [3] and in experiment [4] was more than 50 µM in each case. In experiment [6], this compound returned a TGI of more than 50 µM.

As to `CN(C)CCC1(C2=CCCC2)CC/C(=C\c2ccc3c(c2)OCO3)C1=O` (centres undefined), the TGI in experiment [1] worked out at 32.6 µM; in [7], 26.4 µM; in experiment [2] it was 25.5 µM; in experiment [3], 35 µM; in [5], 38.3 µM; in experiment [6] it was 38.7 µM.

In the case of `CN(C)c1c(Cl)c(=O)oc2c1ccc1nc(-c3ccccc3)sc12`, in experiment [9], the TGI is more than 100 µM.

With `CCc1nc2c(O)ccc(O)c2nc1C`, the TGI in [8] is 37 µM; in experiment [1] it was 19.4 µM; in experiment [7], 35.3 µM; in [2], 15.8 µM; in experiment [3] it was 62.6 µM; in [4] it was 39.4 µM. Moreover, the results for the TGI in experiment [5] and in [6] were 9.35 µM and 34.3 µM, respectively.

For `O=S(=O)(c1cccc(C(F)(F)F)c1)N1c2ccccc2-n2cccc2C1c1cccnc1` (centres undefined), the TGI in experiment [9] was more than 100 µM.

As for `Cc1c(/C=C2\CC/C(=C\c3[nH]c(C(=O)OC(C)(C)C)c(C)c3C)C2=O)[nH]c(C(=O)OC(C)(C)C)c1C`, the TGI in [8], in experiment [1], in [7], in [2], in [3] and in [4] was more than 100 µM in each case. Further, the TGI in experiment [5] is more than 100 µM.

With `O=C(/C=C/c1ccc(OCCCCCCCCCCOc2ccc(/C=C/C(=O)c3ccc(Cl)cc3)cc2)cc1)c1ccc(Cl)cc1`, the TGI in experiment [8], in [7], in [3], in experiment [5] and in experiment [6] was more than 100 µM each time.

With `O=C(Cn1ccnc1[N+](=O)[O-])N(CCO)CCO`, the TGI was more than 1.25 mM in experiment [10]; more than 1250 µM in experiment [8]; more than 1.25 mM in experiment [11]; more than 1250 µM in [1]; more than 1250 µM in experiment [7]; more than 250 µM in experiment [9]. Moreover, the TGI in experiment [3] was more than 1250 µM; in experiment [4] it was more than 58 µM; in [5], more than 1250 µM.

For `CN(C)CCNC(=O)c1ccc2ccc3cccnc3c2n1`, the TGI in [8] is 22.6 µM; in [7], more than 100 µM; in [2] it was more than 100 µM; in [3], more than 34.8 µM; in experiment [5], more than 84.4 µM.

`O=C(NO)c1ccc(C(=O)NO)cc1` displayed a TGI in experiment [9] of more than 100 µM.

As to `CC(=O)[CH-]C(=O)c1ccccc1.CC(=O)[CH-]C(=O)c1ccccc1.[Nd+3].[OH-].[OH3+]`, the GI50 in [1] was more than 100000 nM; in [7], more than 100000 nM; in [2] it was more than 100 µM; in [5] it was more than 100 µM. In addition, the TGI in [1], in experiment [7], in experiment [2] and in experiment [5] was more than 100 µM in each case.

In the case of `CS(=O)(=O)C1S(=O)(=O)OCCOS1(=O)=O`, the TGI in experiment [8], in [1], in experiment [7], in experiment [2], in [3] and in experiment [4] was more than 100 µM throughout. Further, the TGI in [5] and in experiment [6] was more than 100 µM in each case.

Turning to `COc1cc2c(cc1OC)C1c3ccccc3C(C#N)(C2)N(C(=O)c2ccccc2)C1O` (centres undefined), the TGI in experiment [8] was more than 100 µM; in experiment [1] it was more than 100 µM; in experiment [7], more than 100 µM; in experiment [2], more than 100 µM; in experiment [3], more than 100 µM; in experiment [4] it was 95.9 µM. Besides, the TGI in [5] and in experiment [6] was more than 100 µM each time.
